The values below come from patent publication US20250353841A1 (BIOGEN MA INC., priority 2022, published 2025).

This experiment relates to mutant Huntington (HTT) protein. Briefly: HTT Mutant HTRF iPSC assay (mHTT protein lowering). Format: cell-based. Particulars: human iPSC derived from a HTT patient with a poly-Q49 mutation. For orientation: In TR-FRET formats the signal depends on donor and acceptor labels being close together.

A value given as a limit tells only on which side of the number the result lay.

Consider `Fc1cc(-c2ccc3[nH]ncc3c2)cn2cc(C3CCNCC3)nc12` [Compound 59, 5-(8-fluoro-2-(piperidin-4-yl)imidazo[1,2-a]pyridin-6-yl)-1H-indazole], for which the IC50 (as a rule, the concentration needed to halve the response being measured) is 1 to 9 µM. As for `Cc1cn2nc(-c3cc(F)c4nc(C5CCNC(C)C5)cn4c3)cc(C)c2n1` (stereo not shown) [Compound 60, 6-(8-fluoro-2-(2-methylpiperidin-4-yl)imidazo[1,2-a]pyridin-6-yl)-2,8-dimethylimidazo[1,2-b]pyridazine], the 50% inhibitory concentration (IC50) is less than 0.1 µM. For `Cc1cn2nc(-c3cc(F)c4nc(C5CCNC(C)C5)cn4c3)ccc2n1` (stereo not shown) [Compound 61, 6-(8-fluoro-2-(2-methylpiperidin-4-yl)imidazo[1,2-a]pyridin-6-yl)-2-methylimidazo[1,2-b]pyridazine], the IC50 was less than 0.1 µM. `Cc1cn2nc(-c3cc(F)c4nc(C5CCNC(C)(C)C5)cn4c3)ccc2n1` (stereo not shown) [Compound 62, 6-(2-(2,2-dimethylpiperidin-4-yl)-8-fluoroimidazo[1,2-a]pyridin-6-yl)-2-methylimidazo[1,2-b]pyridazine] gave an IC50 of less than 0.1 µM.

In the case of `Cn1cc2cc(-c3cc(F)c4nc(C5CCNC(C)(C)C5)cn4c3)cc(F)c2n1` (stereo not shown) [Compound 63, 5-(2-(2,2-dimethylpiperidin-4-yl)-8-fluoroimidazo[1,2-a]pyridin-6-yl)-7-fluoro-2-methyl-2H-indazole], the IC50 lay within 1 to 9 µM. The value for `Cc1cn2nc(-c3cc(F)c4nc(C5CNC5)cn4c3)cc(C)c2n1` [Compound 64] was 1 to 9 µM; that for `Cn1cc2cc(-c3cc(F)c4nc(C5CCNC5)cn4c3)ccc2n1` (stereo not shown) [Compound 65, 5-(8-fluoro-2-(pyrrolidin-3-yl)imidazo[1,2-a]pyridin-6-yl)-2-methyl-2H-indazole] was 1 to 9 µM; that for `CN1CC2(c3cn4cc(-c5cc(F)c6nn(C)cc6c5)cc(F)c4n3)CC1C2` [Compound 66, 7-fluoro-5-[8-fluoro-2-(2-methyl-2-azabicyclo[2.1.1]hexan-4-yl)imidazo[1,2-a]pyridin-6-yl]-2-methyl-indazole] was 1 to 9 µM. The compound `Cn1cc2cc(-c3cc(F)c4nc(C56CNC(C5)C6)cn4c3)cc(F)c2n1` [Compound 67] returned an IC50 of 1 to 9 µM. Take `Cn1cc2cc(-c3cc(F)c4nc(C56CC(N)(CO5)C6)cn4c3)cc(F)c2n1` [Compound 68]: the IC50 lay in the range of 1 to 9 µM.

Consider `Cc1cn2nc(-c3cc(F)c4nc(C5CCN(C6CCC6)CC5)cn4c3)cc(C)c2n1` [Compound 69, 6-[2-(1-cyclobutyl-4-piperidyl)-8-fluoro-imidazo[1,2-a]pyridin-6-yl]-2,8-dimethyl-imidazo[1,2-b]pyridazine], for which the IC50 was less than 0.1 µM.

`Cn1cc2cc(-c3cc(F)c4nc(C56CCC(N)(C5)C6)cn4c3)cc(F)c2n1` [Compound 72, 4-(8-fluoro-6-(7-fluoro-2-methyl-2H-indazol-5-yl)imidazo[1,2-a]pyridin-2-yl)bicyclo[2.1.1]hexan-1-amine] showed an IC50 of 1 to 9 µM. Turning to `CN1C(=O)COc2cc(-c3cc(F)c4nc(C5CCNCC5)cn4c3)cnc21` [Compound 73, 7-(8-fluoro-2-(piperidin-4-yl)imidazo[1,2-a]pyridin-6-yl)-4-methyl-2H-pyrido[3,2-b][1,4]oxazin-3(4H)-one], the IC50 lay in the range of 1 to 9 µM. The compound `CC(=O)N1CCC(c2cn3cc(-c4cc(C)c5nc(C)cn5n4)cc(F)c3n2)CC1` [Compound 74, 1-[4-[6-(2,8-dimethylimidazo[1,2-b]pyridazin-6-yl)-8-fluoro-imidazo[1,2-a]pyridin-2-yl]-1-piperidyl]ethanone] had an IC50 of 0.1 to 1 µM. The value for `Cn1cc2cc(-c3cc(F)c4nc(C56CCNC(C5)C6)cn4c3)cc(F)c2n1` [Compound 75] was 1 to 9 µM. Compound `CN1CCC2(c3cn4cc(-c5cc(F)c6nn(C)cc6c5)cc(F)c4n3)CC1C2` [Compound 76, 5-(8-fluoro-6-(7-fluoro-2-methyl-2H-indazol-5-yl)imidazo[1,2-a]pyridin-2-yl)-2-methyl-2-azabicyclo[3.1.1]heptane] returned an IC50 of 1 to 9 µM.

With `CNC12CCC(c3cn4cc(-c5cc(F)c6nn(C)cc6c5)cc(F)c4n3)(C1)C2` [Compound 77, 4-(8-fluoro-6-(7-fluoro-2-methyl-2H-indazol-5-yl)imidazo[1,2-a]pyridin-2-yl)-N-methylbicyclo[2.1.1] hexan-1-amine], the concentration for half-maximal inhibition (IC50) is 1 to 9 µM. The value for `Cc1cn2nc(-c3cc(F)c4nc(C5CC6(CCNCC6)C5)cn4c3)cc(C)c2n1` [Compound 78, 6-(8-fluoro-2-(7-azaspiro[3.5]nonan-2-yl)imidazo[1,2-a]pyridin-6-yl)-2,8-dimethylimidazo[1,2-b]pyridazine] was less than 0.1 µM; that for `CNC12COC(c3cn4cc(-c5cc(F)c6nn(C)cc6c5)cc(F)c4n3)(C1)C2` [Compound 79, 1-[8-fluoro-6-(7-fluoro-2-methyl-indazol-5-yl)imidazo[1,2-a]pyridin-2-yl]-N-methyl-2-oxabicyclo[2.1.1]hexan-4-amine] was 0.1 to 1 µM; that for `Cc1cn2nc(-c3cc(F)c4nc(C56CC(C5)N(C)C6)cn4c3)cc(C)c2n1` [Compound 80] was 0.1 to 1 µM. In the case of `Cc1nc2c(F)cc(-c3cc(F)c4nc(C5CCNCC5)cn4c3)cc2o1` [Compound 82, 4-fluoro-6-(8-fluoro-2-(piperidin-4-yl)imidazo[1,2-a]pyridin-6-yl)-2-methylbenzo[d]oxazole], the IC50 is less than 0.1 µM. `COc1cc(-c2cc(F)c3nc(C4CCNCC4)cn3c2)cc2cn(C)nc12` [Compound 83, 5-(8-fluoro-2-(piperidin-4-yl)imidazo[1,2-a]pyridin-6-yl)-7-methoxy-2-methyl-2H-indazole]: the IC50 fell in the range of 0.1 to 1 µM. The value for `Cn1cc2cc(-c3cc(F)c4nc(C5CCNCC5)cn4c3)cc(C(F)F)c2n1` [Compound 84, 7-(difluoromethyl)-5-(8-fluoro-2-(piperidin-4-yl)imidazo[1,2-a]pyridin-6-yl)-2-methyl-2H-indazole] was less than 0.1 µM; that for `Cn1cc2cc(-c3cc(F)c4nc(C5CCNCC5)cn4c3)cc(C#N)c2n1` [Compound 85, 5-(8-fluoro-2-(piperidin-4-yl)imidazo[1,2-a]pyridin-6-yl)-2-methyl-2H-indazole-7-carbonitrile] was 0.1 to 1 µM. As for `Cn1cc2c(F)cc(-c3cc(F)c4nc(C5CCNCC5)cn4c3)cc2n1` [Compound 86, 4-fluoro-6-(8-fluoro-2-(piperidin-4-yl)imidazo[1,2-a]pyridin-6-yl)-2-methyl-2H-indazole], the IC50 was in the range of 1 to 9 µM.

The compound `Cn1nc2cc(-c3cc(F)c4nc(C5CCNCC5)cn4c3)cc(F)c2n1` [Compound 87, 4-fluoro-6-(8-fluoro-2-(piperidin-4-yl)imidazo[1,2-a]pyridin-6-yl)-2-methyl-2H-benzo[d][1,2,3]triazole] gave an IC50 of 0.1 to 1 µM. In the case of `Cc1nc2c(F)cc(-c3cc(F)c4nc(C5CCNCC5)cn4c3)cn2n1` [Compound 88, 8-fluoro-6-(8-fluoro-2-(piperidin-4-yl)imidazo[1,2-a]pyridin-6-yl)-2-methyl-[1,2,4]triazolo[1,5-a]pyridine], the IC50 lay within 0.1 to 1 µM. Turning to `COc1cc(-c2cc(F)c3nc(C4CCNCC4)cn3c2)cn2cc(C)nc12` [Compound 89, 8-fluoro-8′-methoxy-2′-methyl-2-(piperidin-4-yl)-6,6′-biimidazo[1,2-a]pyridine], the IC50 was in the range of 0.1 to 1 µM. `Cc1nc2c(F)cc(-c3cc(F)c4nc(C5CCNCC5)cn4c3)cc2s1` [Compound 90, 4-fluoro-6-(8-fluoro-2-(piperidin-4-yl)imidazo[1,2-a]pyridin-6-yl)-2-methylbenzo[d]thiazole] had a half-inhibitory concentration (IC50) of 1 to 9 µM.

In the case of `Cc1cn2nc(-c3cc(F)c4nc(C56CC(N)(C5)C6)cn4c3)cc(C)c2n1` [Compound 91], the IC50 was less than 0.1 µM.

`Cc1cc(-c2cc(F)c3nc(C4CCNCC4)cn3c2)nc2cn(C)nc12` [Compound 92, 5-(8-fluoro-2-(piperidin-4-yl)imidazo[1,2-a]pyridin-6-yl)-2,7-dimethyl-2H-pyrazolo[4,3-b]pyridine]: the concentration for half-maximal inhibition (IC50) is less than 0.1 µM. For `Cn1cc2cc(-c3cc(F)c4nc(C5CCNCC5)cn4c3)cc(F)c2n1` [Compound 93, 7-fluoro-5-(8-fluoro-2-(piperidin-4-yl)imidazo[1,2-a]pyridin-6-yl)-2-methyl-2H-indazole], the IC50 lay in the range of 0.1 to 1 µM. Turning to `Cc1cc(-c2cc(F)c3nc(C4CCNCC4)cn3c2)cc2cn(C)nc12` [Compound 94, 5-(8-fluoro-2-(piperidin-4-yl)imidazo[1,2-a]pyridin-6-yl)-2,7-dimethyl-2H-indazole], the IC50 fell in the range of 0.1 to 1 µM. As for `Cc1cn2cc(-c3cc(F)c4nc(C5CCNCC5)cn4c3)cc(C)c2n1` [Compound 95, 8-fluoro-2′,8′-dimethyl-2-(piperidin-4-yl)-6,6′-biimidazo[1,2-a]pyridine], the IC50 lay within 0.1 to 1 µM. Regarding `Cc1cn2cc(-c3cc(F)c4nc(C5CCNCC5)cn4c3)ccc2n1` [Compound 96, 8-fluoro-2′-methyl-2-(piperidin-4-yl)-6,6′-biimidazo[1,2-a]pyridine], the IC50 was 1 to 9 µM. The value for `Cc1cn2cc(-c3cc(F)c4nc(C5CCNCC5)cn4c3)cc(F)c2n1` [Compound 97, 8,8′-difluoro-2-methyl-2′-(piperidin-4-yl)-6,6′-biimidazo[1,2-a]pyridine] was 0.1 to 1 µM. `Fc1cc(-c2ccc3sncc3c2)cn2cc(C3CCNCC3)nc12` [Compound 98, 5-(8-fluoro-2-(piperidin-4-yl)imidazo[1,2-a]pyridin-6-yl)benzo[d]isothiazole] came in with an IC50 of 1 to 9 µM. `Cc1cn2nc(-c3cc(F)c4nc(C5CCN(C6COC6)CC5)cn4c3)cc(C)c2n1` [Compound 99, 6-(8-fluoro-2-(1-(oxetan-3-yl)piperidin-4-yl)imidazo[1,2-a]pyridin-6-yl)-2,8-dimethylimidazo[1,2-b]pyridazine] had a half-maximal inhibitory concentration (IC50) of less than 0.1 µM. Compound `CNC12CC(c3cn4cc(-c5cc(C)c6nc(C)cn6n5)cc(F)c4n3)(C1)C2` [Compound 100, 3-(6-(2,8-dimethylimidazo[1,2-b]pyridazin-6-yl)-8-fluoroimidazo[1,2-a]pyridin-2-yl)-N-methylbicyclo[1.1.1] pentan-1-amine] showed an IC50 of less than 0.1 µM.

With `Cc1cn2nc(-c3cc(F)c4nc(C5CCNCC5)cn4c3)c(C)cc2n1` [Compound 101, 6-(8-fluoro-2-(piperidin-4-yl)imidazo[1,2-a]pyridin-6-yl)-2,7-dimethylimidazo[1,2-b]pyridazine], the half-inhibitory concentration (IC50) fell in the range of 1 to 9 µM.
